From PMC13429874, “ABHD2 activity is not required for the non-genomic action of progesterone on human sperm” (Human Reproduction (Oxford, England), 2026)
Blank lines part the entries; values can stand above or below the molecule they belong to.

How the values were obtained:
[1] = target: T1, full-length human ABHD2 (ABHD2^FL) (Homo sapiens, UniProt P08910); experiment: ABHD2^FL enzymatic activity assay with 7-HCA substrate; assay type: biochemical
T1 construct: TEV site-eGFP-8xHis (C, cleaved yes); made in house; host or cells: SF9 insect cells (baculovirus)
T1 sequence (P08910 1-425): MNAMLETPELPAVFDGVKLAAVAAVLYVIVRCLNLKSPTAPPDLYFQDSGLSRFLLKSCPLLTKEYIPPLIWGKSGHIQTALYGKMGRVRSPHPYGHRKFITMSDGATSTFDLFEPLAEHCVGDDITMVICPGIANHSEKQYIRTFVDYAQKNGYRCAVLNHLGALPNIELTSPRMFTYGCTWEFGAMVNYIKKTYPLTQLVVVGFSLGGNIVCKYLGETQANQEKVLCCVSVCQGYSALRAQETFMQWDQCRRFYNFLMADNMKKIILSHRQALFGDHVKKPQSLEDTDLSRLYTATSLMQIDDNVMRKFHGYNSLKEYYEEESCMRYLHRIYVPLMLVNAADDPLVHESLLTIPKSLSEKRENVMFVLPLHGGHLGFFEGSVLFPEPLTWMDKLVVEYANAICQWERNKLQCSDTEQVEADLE

[2] = target: T1, full-length human ABHD2 (ABHD2^FL); experiment: ABHD2^FL enzymatic activity assay with resorufin butyrate (RB) substrate; assay type: biochemical
[3] = target: T2, human ABHD11 (Homo sapiens, UniProt Q8NFV4); experiment: ABHD11 colorimetric assay with p-nitrophenyl butyrate; assay type: biochemical; settings: 10 µM compound, 500 µM p-NPB
T2 construct: residues V34—V315 of human ABHD11; His6-TEV site (N); made in house; host or cells: E. coli
T2 sequence (Q8NFV4 25-306 limits assumed): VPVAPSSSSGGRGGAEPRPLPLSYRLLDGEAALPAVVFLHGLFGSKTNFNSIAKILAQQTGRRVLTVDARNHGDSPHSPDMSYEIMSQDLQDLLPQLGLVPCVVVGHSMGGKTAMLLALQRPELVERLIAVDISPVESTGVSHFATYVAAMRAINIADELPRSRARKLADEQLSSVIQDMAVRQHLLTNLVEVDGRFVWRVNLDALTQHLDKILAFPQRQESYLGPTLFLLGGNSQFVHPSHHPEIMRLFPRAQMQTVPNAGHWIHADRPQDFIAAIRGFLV
Procedure: (§1) Enzymatic activities of ABHD10 and ABHD11 were measured in a colorimetric assay using p-nitrophenyl butyrate (p-NPB) as substrate. Enzymes at 1500 nM ABHD10 and 125 nM ABHD11 in 20 mM HEPES pH 7.5, 150 mM NaCl, and 2% (v/v) DMSO were pre-incubated in 96-well plates with 50 µM test compound for 30 min at 4°C. Plates were then equilibrated at 37°C for 2 min, and reactions were initiated by adding 160 µl of pre-warmed substrate solution (same buffer with 625 µM p-NPB) to a total volume of 200 µl, yielding final assay concentrations of 300 nM ABHD10, 25 nM ABHD11, and 500 µM pNPB. The substrate solution was prepared immediately before addition to the enzyme mixtures. Absorbance at 405 nm was recorded on a SpectraMax iD3 plate reader (Molecular Devices) for 20 min with continuous monitoring at 30 s intervals.

[4] = target: T3, human ABHD10 (Homo sapiens, UniProt Q9NUJ1); experiment: ABHD10 colorimetric assay with p-nitrophenyl butyrate; assay type: biochemical; settings: 10 µM compound, 500 µM p-NPB
T3 construct: Constructs encoding amino acids T53—N306 of human ABHD10; His6-TEV site (N); made in house; host or cells: E. coli
T3 sequence (Q9NUJ1 53-306): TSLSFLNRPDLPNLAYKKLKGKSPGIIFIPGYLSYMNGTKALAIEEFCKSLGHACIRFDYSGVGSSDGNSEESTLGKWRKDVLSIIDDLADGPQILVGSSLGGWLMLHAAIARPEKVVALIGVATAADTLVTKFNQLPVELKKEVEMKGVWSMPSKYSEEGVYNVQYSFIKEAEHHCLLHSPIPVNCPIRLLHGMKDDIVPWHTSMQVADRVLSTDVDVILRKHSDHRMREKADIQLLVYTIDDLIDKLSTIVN
Procedure: as §1

[5] = target: T4, ABHD2^L33–E425 (Homo sapiens, UniProt P08910); experiment: ABHD2^L33-E425 fluorometric enzymatic activity assay with 7-HCA substrate; assay type: biochemical
T4 construct: expression for ABHD2 amino acids L33–E425, in which a predicted transmembrane domain (amino acids 1–32) is removed; His6-FLAG (N); made in house; host or cells: E. coli BL21(DE3)-R3-pRARE2
T4 sequence (P08910 33-425): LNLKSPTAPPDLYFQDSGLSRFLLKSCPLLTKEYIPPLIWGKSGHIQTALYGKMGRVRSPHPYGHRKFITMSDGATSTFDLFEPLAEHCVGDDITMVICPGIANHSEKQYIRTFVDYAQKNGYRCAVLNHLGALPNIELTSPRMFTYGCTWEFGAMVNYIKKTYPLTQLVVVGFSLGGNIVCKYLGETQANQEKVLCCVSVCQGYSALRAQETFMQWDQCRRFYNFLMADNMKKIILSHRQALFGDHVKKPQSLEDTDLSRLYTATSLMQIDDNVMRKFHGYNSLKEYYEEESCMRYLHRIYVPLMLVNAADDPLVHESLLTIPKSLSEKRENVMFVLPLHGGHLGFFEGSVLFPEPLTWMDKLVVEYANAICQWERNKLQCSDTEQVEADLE

[6] = target: T4, ABHD2^L33–E425; experiment: Differential scanning fluorimetry (DSF) with purified ABHD2^L33–E425; assay type: binding
[7] = target: T5, ABHD2^FL (Homo sapiens, UniProt P08910); experiment: Differential scanning fluorimetry (DSF) with purified ABHD2^FL; assay type: binding; settings: 20 µM
T5 construct: TEV site-eGFP-8xHis (C, cleaved yes); made in house; host or cells: SF9 insect cells (baculovirus)
T5 sequence (P08910 1-425): T1 sequence (P08910 1-425)

[8] = test system: human sperm; experiment: Sperm hyperactivation assay (CASA); assay type: cell-based; settings: 3 µM, 30 min
Procedure: Sperm hyperactivation was assessed in human sperm purified by density gradient centrifugation. Semen samples (n = 7) were allowed to liquefy for 15–30 min at 37°C, and up to 2 ml of liquified semen was layered onto a two-step GM501 gradient system (45%/90%; Gynemed; Sierksdorf, Germany) pre-equilibrated at 37°C. Gradients were centrifuged for 20 min at 400 × g (no break). The 90% pellet was collected, washed in SpermActive medium (Gynemed; composition per manufacturer: NaCl, KCl, MgSO4.7H2O, KH2PO4, 1.77 mM CaCl2.2H2O, D(+)-glucose anhydrous, sodium pyruvate, sodium lactate, EDTA, alanyl-glutamine, essential and non-essential amino acids, 25.71 mM NaHCO3, 15 mM HEPES, 5 g/l human serum albumin, 10 mg/l gentamicin, and phenol red), and incubated for at least 2 h at 37°C, 5% CO2.
For compound testing, sperm suspensions with 7.5 × 10^6 sperm/ml in SpermActive were treated with either DMSO (vehicle) or 10 µM test compound. For basal and induced hyperactivation conditions, DMSO or progesterone (3 µM), respectively, was added. Samples were incubated for 30 min at 37°C, 5% CO2, before motility analysis.
Motility was analyzed using a CASA system (CEROSII^TM Animal Motility, software version 1.16; Hamilton Thorne, Beverly, MA, USA), mounted on an Axiolab 5 microscope (Zeiss, Germany), equipped with a TPi-SX Thermal Plate (Tokai Hit; Shizuoka-ken, Japan) and a JAI CM-040-GE CCD camera (JAI; Tokyo, Japan). Leja slides (20 µm chamber depth; Leja Products B.V., Nieuw-Vennep, The Netherlands) were pre-warmed to 37°C, cleaned with lens paper, and loaded by capillary action with 6 µl sperm suspension; capillary correction was set to 1.3. Sperm tracks were recorded at 37°C using a 10× negative-phase objective, acquiring 60 frames at 60 Hz with 4 ms exposure and gain set to 600. For each sample and condition, 300–500 motile sperm from at least 10 non-overlapping fields were analyzed. Hyperactive sperm were identified using the SORT function with the following Boolean argument: VCL > 150 µm/s and LIN < 50% and ALH > 7 µm. For each sample and condition, the percentage of hyperactive sperm was normalized to the percentage of motile sperm, and the mean of two technical duplicates was reported.
Statistical analysis was performed using GraphPad Prism 10 for Windows (version 10.6.1). Data normality was assessed using Shapiro–Wilk test. Differences between basal and induced hyperactivation were evaluated using a paired t-test, with effective pairing confirmed across all comparisons. P < 0.05 was considered statistically significant.

[9] = target: the molecule itself; experiment: SEC; HiLoad 16/600 Superdex 75 pg, final purification step after nickel affinity; pure fractions concentrated in 20 mM HEPES pH 8, 500 mM NaCl, 10% (v/v) glycerol, 1 mM TCEP

- IC50 ([1]; 5 µM 7-HCA, read-out: IC50, ABHD2^FL, 7-HCA assay): 969 nM
- IC50 ([2]; 15 µM RB): 305 nM
Molecule: CCCCCCCCCCC[C@@H](C[C@@H]1OC(=O)[C@H]1CCCCCC)OC(=O)[C@H](CC(C)C)NC=O [Orlistat]

- Km ([2]; 25 nM ABHD2^FL, read-out: Km of substrate hydrolysis by ABHD2^FL): 23 µM
Molecule: CCCC(=O)Oc1ccc2nc3ccc(=O)cc-3oc2c1 [RB, resorufin butyrate]

- inhibition of ABHD11 [3]: no detectable inhibition
- IC50 ([1]; Supplementary Table S2, read-out: IC50 measured in ABHD2^FL in the 7-HCA Assay): 490 nM
- inhibition of ABHD10 [4]: no detectable inhibition
- IC50 ([5]; 10 nM enzyme, 10 µM 7-HCA, read-out: IC50 for ABHD2^L33-425, fluorometric assay using 7-HCA): 320 nM
- effect on melting temperature / thermal stability of ABHD2^L33-E425 (DSF), in words ([6]; 10 µM compound, 30 min pre-incubation): increased melting temperature
- ΔTm shift for ABHD2^L33-425 determined by DSF ([6]; purified protein): 13 °C
Molecule: O=C(N1CCCCC1)N1CCCCC1c1ccccc1 (stereo not drawn) [Compound 2]

- effect on heat-induced denaturation of ABHD2^FL (DSF binding) [7]: did not affect
- effect on enzymatic activity of purified ABHD2^FL ([1]; 7-HCA and RB substrates (Suppl. Fig. S4A,B), weak effects at ≥5 µM): did not alter
- effect on enzymatic activity of purified ABHD2^L33–E425 ([5]; 5 µM steroid or triterpenoid, 300 nM 7-HCA): did not alter
- effect on heat-induced denaturation of ABHD2^L33–E425 (DSF binding) ([6]; 40 µM steroid, 30 min pre-incubation): did not affect
Molecule: CC(=O)[C@H]1CC[C@H]2[C@@H]3CCC4=CC(=O)CC[C@]4(C)[C@H]3CC[C@]12C [progesterone]
- fraction of hyperactivated sperm upon stimulation [8]: increased

B1: Truncated ABHD2 (ABHD2^L33–E425) (domain or fragment, human, UniProt P08910 33-425, looked up)
chain: T4 sequence (P08910 33-425)
notes: human ABHD2 (alpha/beta hydrolase domain-containing protein 2), Uniprot ID P08910, amino acids L33-E425; the predicted transmembrane domain (amino acids 1-32) is removed; No tag cleavage is described; Further construct details may be in the Supplementary Materials and Methods; also called ABHD2^L33-425; ABHD2 amino acids L33–E425; source: E. coli BL21(DE3)-R3-pRARE2, purified (nickel-sepharose, …)
- stoichiometry N [9]: 4
